Reference: patent US10472677B2, “Translational dysfunction based therapeutics” (Translational Therapeutics, Inc., priority 2005, dated 2019)
“Also recorded” adds a separate entry of the source.

Tests used:
[1] = biological target: T1, eIF4E W56A (Mus musculus, UniProt P63073, W56A); experiment: tryptophan fluorescence quenching titration, cap-binding site mutant; details: relative to wild-type eIF4E
T1 construct: made in house
Method: For fluorescence titrations, mouse eIF4E, which differs from human eIF4E by four nonconserved amino acids, was produced as described. For NMR spectroscopy, mouse eIF4E was expressed as a fusion with the B1 domain of protein G (G4E, kind gift of Gerhard Wagner, Harvard University, Cambridge, Mass.), in BL21 (DE-3) cells by induction with 0.8 mM isopropyl-β-D-thiogalactopyranoside at 18° C. for 20 h in M9 minimal media containing 1 g/l ^15NH4Cl as the sole nitrogen source (Cambridge Isotopes). […] Eluate was dialyzed extensively against 0.1 M NaCl/50 mM Na2PO4 (pH 6.5)/5 mM DTT at 4° C. to produce apo-G4E, as verified by using NMR spectroscopy and fluorescence titrations. […]
Fluorescence measurements were performed by using a home-built fluorimeter, as described. All titrations were performed in 0.3 M NaCl/10 mM Na2PO4 (pH 7.5)/1 μM zinc in 0.3×0.3 cm^2 fluorescence cuvette (Hellma), by using eIF4E concentration of 2 μM. […] Corrected relative fluorescence intensities were normalized, and fluorescence quenching curves were fit to a heuristic single-site-binding expression: I/I0=Kd^n/(x^n+Kd^n) where x is ligand concentration, Kd is the apparent dissociation constant, and n is the Hill coefficient.

[2] = biological target: T2, eIF4E:mRNA binding in cells (Mus musculus, UniProt P63073); experiment: immunopurification of eIF4E from treated cells and semiquantitative RT-PCR; assay type: cell-based
T2 construct: endogenous in cells; host or cells: NIH 3T3 cells
Method: Sepharose-conjugated protein G (Amersham Pharmacia) for 30 min at 4° C., incubated with 10 μg of mouse anti-eIF4E antibody (Transduction Laboratories) for 90 min at 4° C., and subsequently incubated overnight at 4° C. upon addition of 0.5 mg yeast tRNA (Sigma-Aldrich), 200 units/ml RNasin (Ambion), and Sepharose-conjugated protein G. Bound Sepharose was washed once with NET-2 buffer supplemented with 1 mg/ml heparin (Sigma-Aldrich) at 4° C., six times with NET-2 buffer alone, and suspended in 100 mM Tris.HCl (pH 6.8)/4% (wt/vol) SDS/20% (vol/vol) glycerol/12% (vol/vol) 2-mercaptoethanol, and incubated for 5 min at 98° C. RNA was extracted once with 25:24:1 […], twice with chloroform:isopropanol, precipitated overnight at −20° C. with 2.5 volumes of absolute ethanol, 0.1 volume of 5 M sodium acetate (pH 5.2), and 20 μg glycogen (Sigma-Aldrich), washed with 75% (vol/vol) ethanol, and resuspended in water. […]. […]

[3] = system: polysomal loading of eIF4E-sensitive mRNAs; experiment: polysomal loading of mRNAs, ribosome purification and quantitative RT-PCR; assay type: cell-based, mouse
Method: Cell pellets (500 mg) were homogenized in 1 ml of ice cold lysis buffer (20 mM Hepes/10 mM magnesium acetate/100 mM potassium acetate, pH 7.5) supplemented with protease inhibitors (EDTA-free Complete, Roche) and 400 units/ml of SUPERasine (Ambion), and incubated for 30 min on ice with occasional vortexing. Lysates were sedimented at 3,000×g for 10 min at 4° C. to pellet nuclei and cell debris. Supernatants were sedimented at 12,000×g for 20 min at 4° C. to pellet mitochondria. Cleared supernatants were then sedimented at 50,000 rpm (SW 50.1 rotor, Beckman) for 50 min at 4° C. to pellet ribosomes. Ribosomal pellets were resuspended in 200 μl of ice-cold lysis buffer and layered on top of 10-40% sucrose gradient buffered with the lysis buffer, and centrifuged at 50,000 rpm for 80 min at 4° C. RNA content of fractions was ascertained by using the ratio of absorbance at 260:280 nm. […] RNA from each fraction was quantified by spectrophotometry and 40 ng was converted into cDNA by using the Sensiscript reverse transcription kit (Qiagen, Valencia, Calif.). Quantitative real-time PCR was carried out in triplicate by using the QuantiTect SYBR green real-time PCR Kit (Qiagen) in an Opticon thermal cycler (MJ Research, Waltham, Mass.). […] Obtained real-time PCR profiles were analyzed by using Opticon software (MJ Research).

[4] = system: AML-M5 progenitor cells; experiment: clonogenic assay, primary CD34+ progenitors; assay type: cell-based; details: Homo sapiens, 336 h; 14 days; read-out: apparent IC50 colony formation
Source text: (§1) Acute myelogenous leukemia (AML) M1, M5, and normal bone marrow specimens were isolated from patients and processed as described. Primary AML cells were obtained from peripheral blood of patients at the Markey Cancer Center, University of Kentucky Medical Center (Lexington, Ky.). Normal bone marrow was obtained as waste material after pathological analysis, surgical marrow harvest, or from the National Disease Research Interchange (Philadelphia). All tissues were obtained with the approval of the Institutional Review Board and appropriate informed consent. Frozen CD34^+ progenitor cells were thawed in Iscove's modified Dulbecco's (IMD) medium supplemented with 10% (vol/vol) FBS. […] Colonies with >20 cells were counted manually and experiments were repeated four times.

[5] = system: AML-M1 progenitor cells; experiment: clonogenic assay, primary CD34+ progenitors; assay type: cell-based, human; details: at ca. 1 uM / similar concentrations
Source text: as §1

[6] = system: normal bone marrow myeloid progenitors; experiment: clonogenic assay, primary CD34+ progenitors; assay type: cell-based, human; details: micromolar concentrations
Source text: as §1

[7] = system: FaDu cells; experiment: Western blot of FaDu cells treated in culture; assay type: cell-based, human; details: 48 hours
Method: FaDu cells were grown in culture as described previously and treated with Ribavirin for 48 hours prior to preparation of protein extracts and western blot analysis.

[8] = system: cellular guanosine pools; details: read-out: EC50 depletion of cellular guanosine pools; cited from earlier work
[9] = cited from earlier work

T2 sequence (P63073 2-217 limits assumed): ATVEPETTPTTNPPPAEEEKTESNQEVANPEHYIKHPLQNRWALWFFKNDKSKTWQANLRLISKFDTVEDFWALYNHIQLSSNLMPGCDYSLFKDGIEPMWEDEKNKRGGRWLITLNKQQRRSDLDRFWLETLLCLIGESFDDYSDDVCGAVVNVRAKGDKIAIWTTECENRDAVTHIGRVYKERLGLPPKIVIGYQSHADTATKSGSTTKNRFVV
T1 sequence (P63073 whole entry W56A): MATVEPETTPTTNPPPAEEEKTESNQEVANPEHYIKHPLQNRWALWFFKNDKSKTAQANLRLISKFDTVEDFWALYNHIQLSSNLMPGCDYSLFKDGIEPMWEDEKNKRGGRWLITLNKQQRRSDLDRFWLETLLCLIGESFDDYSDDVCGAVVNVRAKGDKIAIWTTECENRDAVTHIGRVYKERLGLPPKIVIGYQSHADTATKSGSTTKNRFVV

## NC(=O)c1ncn([C@@H]2O[C@H](CO)[C@@H](O)[C@H]2O)n1 [Ribavirin, 1-β-D-ribofuranosyl-1,2,4-triazole-3-carboxamide]
[1]
  reduction of Ribavirin affinity by W56A mutation: 14 fold
[2]; 1 uM
  cytoplasmic eIF4E:VEGF mRNA complexes: partly abrogated
[2]; 100 uM
  cytoplasmic eIF4E:actin mRNA complexes: not disrupted
[2]; nuclear eIF4E, read-out: apparent EC50 inhibition of eIF4E binding to cyclin D1 mRNA in cells
  EC50: ~1000 nM
[3]
  decrease of polysomal loading of VEGF and ODC mRNAs: > 1,000 fold
[3]; 1 μM
  polysomal loading of cyclin D1 mRNA: no significant effect
[4]
  IC50: ~1000 nM
[5]
  colony formation of AML-M1 progenitors: no effect; also recorded: failed to repress colony formation
[6]
  colony formation of normal bone marrow progenitors: no effect; also recorded: lack of an effect
[7]
  Actin and eIF4E protein levels: remain unchanged
  protein level of NBS1, Cyclin D1 and ODC: decreased
[8]
  EC50: ~100000 nM
[9]; anhydrous ethanol
  solubility in anhydrous ethanol: sparingly soluble
[9]; water
  solubility in water: freely soluble
